# Where a SMILES comes first, the peptide text is derived from it. [ ]: non-standard residue; d: D form. The star is where a group is joined. X1 = Cc1ccc(Nc2ncc3c(n2)N(C)C(=O)N(c2cc(C(=O)*)ccc2C)C3)cn1; Aib = CC(C)(N)C(=O)O
# Experiments:
# [1] = target: T1, p38a (Homo sapiens, UniProt Q16539); assay: In vitro kinase assay (IC50); assay type: biochemical
# T1 construct: purchased Reaction Biology Corp
# Procedure: (§1) Full panel kinase profiling and kinase IC50 measurement were performed by using Reaction Biology Corp. (San Diego, USA).
# [2] = target: T2, Lck (Homo sapiens, UniProt P06239); assay: In vitro kinase assay (IC50); assay type: biochemical
# T2 construct: purchased Reaction Biology Corp
# Procedure: as §1
# [3] = target: T3, Abl1 (Homo sapiens, UniProt P00519); assay: In vitro kinase assay (IC50); assay type: biochemical
# T3 construct: purchased Reaction Biology Corp
# Procedure: as §1
# [4] = target: T4, c-Src (Homo sapiens, UniProt P12931); assay: In vitro kinase assay (IC50); assay type: biochemical
# T4 construct: purchased Reaction Biology Corp
# Procedure: as §1
# [5] = target: T2, Lck; assay: Biochemical IC50 on Lck at Km and 1 mM ATP
# Procedure: as §1
# T3 sequence (P00519 whole entry): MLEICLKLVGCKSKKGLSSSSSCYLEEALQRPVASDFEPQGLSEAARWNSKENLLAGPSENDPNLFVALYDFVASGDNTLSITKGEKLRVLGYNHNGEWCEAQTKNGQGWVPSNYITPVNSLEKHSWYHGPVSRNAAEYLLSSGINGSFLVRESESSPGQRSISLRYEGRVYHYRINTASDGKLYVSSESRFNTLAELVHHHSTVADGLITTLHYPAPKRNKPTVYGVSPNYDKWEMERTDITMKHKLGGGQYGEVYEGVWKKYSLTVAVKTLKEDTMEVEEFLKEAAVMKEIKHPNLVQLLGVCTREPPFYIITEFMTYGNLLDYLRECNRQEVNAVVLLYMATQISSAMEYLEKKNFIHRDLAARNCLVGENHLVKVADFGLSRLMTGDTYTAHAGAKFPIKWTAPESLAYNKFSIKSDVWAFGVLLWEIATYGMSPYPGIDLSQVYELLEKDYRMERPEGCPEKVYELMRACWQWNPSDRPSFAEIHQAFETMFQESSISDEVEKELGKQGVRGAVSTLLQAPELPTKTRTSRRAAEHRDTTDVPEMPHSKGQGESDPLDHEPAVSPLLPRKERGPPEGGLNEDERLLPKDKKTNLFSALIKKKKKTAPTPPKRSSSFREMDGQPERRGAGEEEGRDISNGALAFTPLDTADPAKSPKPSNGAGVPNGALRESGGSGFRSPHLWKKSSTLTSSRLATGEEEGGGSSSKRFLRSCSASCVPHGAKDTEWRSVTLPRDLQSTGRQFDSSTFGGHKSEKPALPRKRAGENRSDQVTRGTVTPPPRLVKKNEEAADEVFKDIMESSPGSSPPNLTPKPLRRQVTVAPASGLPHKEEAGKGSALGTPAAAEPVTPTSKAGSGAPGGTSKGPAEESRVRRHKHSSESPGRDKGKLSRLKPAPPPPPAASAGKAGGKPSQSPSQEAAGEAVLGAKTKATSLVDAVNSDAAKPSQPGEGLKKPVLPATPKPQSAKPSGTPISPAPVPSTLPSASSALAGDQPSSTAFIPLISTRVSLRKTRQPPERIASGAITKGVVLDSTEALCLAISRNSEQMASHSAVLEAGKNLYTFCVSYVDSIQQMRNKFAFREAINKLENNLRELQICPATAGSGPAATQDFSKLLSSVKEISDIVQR
# T1 sequence (Q16539 whole entry): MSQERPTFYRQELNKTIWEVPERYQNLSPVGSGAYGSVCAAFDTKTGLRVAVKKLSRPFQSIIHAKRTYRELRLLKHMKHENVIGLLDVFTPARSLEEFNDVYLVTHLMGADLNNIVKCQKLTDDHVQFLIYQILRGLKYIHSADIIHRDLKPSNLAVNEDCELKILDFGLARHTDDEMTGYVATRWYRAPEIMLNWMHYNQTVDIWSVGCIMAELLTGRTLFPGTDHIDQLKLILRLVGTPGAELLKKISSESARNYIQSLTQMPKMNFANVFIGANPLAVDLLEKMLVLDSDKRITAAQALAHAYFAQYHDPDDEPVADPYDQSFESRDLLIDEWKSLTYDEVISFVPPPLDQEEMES
# T4 sequence (P12931 whole entry): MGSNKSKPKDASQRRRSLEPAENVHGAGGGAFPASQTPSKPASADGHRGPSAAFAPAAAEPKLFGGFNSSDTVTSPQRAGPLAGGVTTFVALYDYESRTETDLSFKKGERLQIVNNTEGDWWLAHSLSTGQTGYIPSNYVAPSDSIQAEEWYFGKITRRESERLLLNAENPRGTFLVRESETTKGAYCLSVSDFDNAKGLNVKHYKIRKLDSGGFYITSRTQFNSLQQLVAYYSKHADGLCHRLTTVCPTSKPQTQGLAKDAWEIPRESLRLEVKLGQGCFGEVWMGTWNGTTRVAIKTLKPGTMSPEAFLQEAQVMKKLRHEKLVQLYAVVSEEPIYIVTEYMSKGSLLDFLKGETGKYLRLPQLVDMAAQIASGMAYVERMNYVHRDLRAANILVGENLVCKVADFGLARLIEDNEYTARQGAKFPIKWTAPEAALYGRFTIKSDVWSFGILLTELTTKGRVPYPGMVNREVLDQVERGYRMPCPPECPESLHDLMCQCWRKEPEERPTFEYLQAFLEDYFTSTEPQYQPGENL
# T2 sequence (P06239 whole entry): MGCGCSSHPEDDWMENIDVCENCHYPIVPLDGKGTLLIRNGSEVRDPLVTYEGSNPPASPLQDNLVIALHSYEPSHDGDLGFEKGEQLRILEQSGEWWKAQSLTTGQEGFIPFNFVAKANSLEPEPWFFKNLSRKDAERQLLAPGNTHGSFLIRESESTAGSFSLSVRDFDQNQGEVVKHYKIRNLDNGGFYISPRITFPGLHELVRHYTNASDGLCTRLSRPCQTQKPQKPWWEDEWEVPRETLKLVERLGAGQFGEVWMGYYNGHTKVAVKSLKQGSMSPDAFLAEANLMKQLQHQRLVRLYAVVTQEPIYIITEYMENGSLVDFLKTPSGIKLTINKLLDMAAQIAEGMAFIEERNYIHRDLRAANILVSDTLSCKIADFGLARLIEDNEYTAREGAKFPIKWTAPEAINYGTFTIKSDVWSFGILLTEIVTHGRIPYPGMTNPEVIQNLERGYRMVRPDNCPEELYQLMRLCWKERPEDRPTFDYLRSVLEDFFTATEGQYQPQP
SMILES,IC50 [1] [nM],IC50 [2] [nM],IC50 [3] [nM],IC50 [4] [nM],selectivity for Lck over c-Src [2],IC50 ([5]; ATP conc. 14 µM (Km)) [nM],IC50 ([5]; ATP conc. 1 mM) [nM],mode of inhibition ([5]; IC50 at Km vs 1 mM ATP)
"Cc1ccc(Nc2ncc3c(n2)N(C)C(=O)N(c2cc(NC(=O)c4ccc5c(c4)NC(=O)[C@H](Cc4ccccc4)N=C5c4ccccc4)ccc2C)C3)cn1 [11a, (S)-3-benzyl-N-(4-methyl-3-(1-methyl-7-((6-methylpyridin-3-yl)amino)-2-oxo-1,4-dihydropyrimido[4,5-d]pyrimidin-3(2H)-yl)phenyl)-2-oxo-5-phenyl-2,3-dihydro-1H-benzo[e][1,4]diazepine-8-carboxamide]",1830,8.5,189,20.4,,,,
"CC[C@@H](C)[C@H]1N=C(c2ccccc2)c2ccc(C(=O)Nc3ccc(C)c(N4Cc5cnc(Nc6ccc(C)nc6)nc5N(C)C4=O)c3)cc2NC1=O [11e, (R)-3-((R)-s-butyl)-N-(4-methyl-3-(1-methyl-7-((6-methylpyridin-3-yl)amino)-2-oxo-1,4-dihydropyrimido[4,5-d]pyrimidin-3(2H)-yl)phenyl)-2-oxo-5-phenyl-2,3-dihydro-1H-benzo[e][1,4]diazepine-8-carboxamide]",250,10.7,55.2,12.8,,,,
"Cc1ccc(Nc2ncc3c(n2)N(C)C(=O)N(c2cc(NC(=O)c4ccc5c(c4)N(Cc4ccccc4)C(=O)[C@H](CC(C)C)N=C5c4ccccc4)ccc2C)C3)cn1 [11b, (S)-1-benzyl-3-isobutyl-N-(4-methyl-3-(1-methyl-7-((6-methylpyridin-3-yl)amino)-2-oxo-1,4-dihydropyrimido[4,5-d]pyrimidin-3(2H)-yl)phenyl)-2-oxo-5-phenyl-2,3-dihydro-1H-benzo[e][1,4]diazepine-8-carboxamide]",3430,37.3,453,410,over 10 fold,510,> 100000,ATP competitive kinase inhibitors

# Continued by falling IC50 [1], values first:
IC50 [1] [nM],IC50 [2] [nM],IC50 [3] [nM],IC50 [4] [nM],SMILES,selectivity for Lck over c-Src [2],IC50 ([5]; ATP conc. 14 µM (Km)) [nM],IC50 ([5]; ATP conc. 1 mM) [nM],mode of inhibition ([5]; IC50 at Km vs 1 mM ATP)
2050,174,317,379,"Cc1ccc(Nc2ncc3c(n2)N(C)C(=O)N(c2cc(C(=O)N[C@H](C(=O)N4CCC[C@@H]4C(=O)NC(C)(C)C(=O)N[C@@H](CC(C)C)C(=O)N(C)C)C(C)C)ccc2C)C3)cn1 [7b, (R)-N-(1-(((S)-1-(dimethylamino)-4-methyl-1-oxopentan-2-yl)amino)-2-methyl-1-oxopropan-2-yl)-1-((4-methyl-3-(1-methyl-7-((6-methylpyridin-3-yl)amino)-2-oxo-1,4-dihydropyrimido[4,5-d]pyrimidin-3(2H)-yl)benzoyl)-L-valyl)pyrrolidine-2-carboxamide] (X1-V[dP][Aib]L-NMe2)",,,,
101,3.42,24.1,15.2,"Cc1ccc(Nc2ncc3c(n2)N(C)C(=O)N(c2cc(NC(=O)c4ccc5c(c4)N(Cc4ccccc4)C(=O)[C@H](C)N=C5c4ccccc4)ccc2C)C3)cn1 [11d, (S)-1-benzyl-3-methyl-N-(4-methyl-3-(1-methyl-7-((6-methylpyridin-3-yl)amino)-2-oxo-1,4-dihydropyrimido[4,5-d]pyrimidin-3(2H)-yl)phenyl)-2-oxo-5-phenyl-2,3-dihydro-1H-benzo[e][1,4]diazepine-8-carboxamide]",,,,
14.9,1.17,4.64,2.84,"Cc1ccc(Nc2ncc3c(n2)N(C)C(=O)N(c2cc(NC(=O)c4ccc5c(c4)NC(=O)[C@H](C)N=C5c4ccccc4)ccc2C)C3)cn1 [11c, (S)-3-methyl-N-(4-methyl-3-(1-methyl-7-((6-methylpyridin-3-yl)amino)-2-oxo-1,4-dihydropyrimido[4,5-d]pyrimidin-3(2H)-yl)phenyl)-2-oxo-5-phenyl-2,3-dihydro-1H-benzo[e][1,4]diazepine-8-carboxamide]",,,,
